Our source for the inhibition and IC50 values is ChEMBL document CHEMBL5390230, “Imidazole-based sphingosine-1-phosphate transporter Spns2 inhibitors” (Bioorg Med Chem Lett, 2023).

Holding throughout (assay type): cell-based
Experiment [1] addresses T1, Sphingosine-1-phosphate transporter SPNS2 (Homo sapiens) (UniProt Q8IVW8).
T1 sequence (whole entry): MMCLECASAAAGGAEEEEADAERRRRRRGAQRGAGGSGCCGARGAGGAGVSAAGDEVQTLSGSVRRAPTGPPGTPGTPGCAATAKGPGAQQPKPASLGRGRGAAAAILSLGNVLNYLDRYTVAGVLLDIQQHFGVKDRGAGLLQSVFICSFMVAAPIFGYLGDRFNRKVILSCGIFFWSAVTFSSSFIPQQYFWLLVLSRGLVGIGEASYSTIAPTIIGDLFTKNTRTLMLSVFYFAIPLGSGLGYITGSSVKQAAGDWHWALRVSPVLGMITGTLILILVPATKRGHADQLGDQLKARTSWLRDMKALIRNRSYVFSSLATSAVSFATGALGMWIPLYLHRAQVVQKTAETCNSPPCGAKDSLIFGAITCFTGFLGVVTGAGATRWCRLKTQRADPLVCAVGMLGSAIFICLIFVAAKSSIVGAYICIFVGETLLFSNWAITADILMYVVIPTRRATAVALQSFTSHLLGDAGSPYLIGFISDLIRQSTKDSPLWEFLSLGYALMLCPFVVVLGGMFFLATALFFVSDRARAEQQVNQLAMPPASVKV
Briefly: Inhibition of Spns2 in human HeLa cells assessed as decrease in extracellular S1P level at 3 uM by LC/MS analysis relative to control.

Experiment [2] concerns the target T1, Sphingosine-1-phosphate transporter SPNS2 (Homo sapiens). The experiment can be described thus: Inhibition of Spns2 in human HeLa cells assessed as decrease in extracellular S1P level at 2 uM by LC/MS analysis relative to control.
Experiment [3] has as its target T2, Sphingosine-1-phosphate transporter SPNS2 (Homo sapiens, UniProt Q8IVW8).
T2 sequence (Q8IVW8 whole entry): T1 sequence (whole entry)
The experiment can be described thus: Inhibition of Spns2 in human HeLa cells decrease in extracellular S1P level by LC/MS method.

For the compound `CCCCCCCCCCc1nc(-c2ccc(-n3ccnc3)cc2)no1`, the inhibition in experiment [1] turned out to be 33%. Still for that read-out and setting: under `CCCCCCCCCc1nc(-c2ccc(-n3ccnc3)cc2)no1` stands 28%. For the compound `CCCCCCCCCCc1ccc(-c2noc(CCCN)n2)cc1`, in experiment [2], the inhibition was found to be 67%. `CCCCCCCc1nc(-c2ccc(-n3ccnc3)cc2)no1`: the inhibition in experiment [1] was determined as 12%. For the compound `CCCCCCCCCCc1ccc(-c2cn(CCCOC)c(CCCN)n2)cc1`, in experiment [2], the inhibition was 11%.

As for `CCCCCCCCCCCc1nc(-c2ccc(-n3cc[n+](C)c3)cc2)no1`, the inhibition in experiment [1] was determined as 3%.

For the compound `CCCCCCCCCCCc1nc(-c2ccc(-n3ccnc3)cc2)no1`, the inhibition in experiment [1] was 25%. For the compound `CCCCCCCCCCc1ccc(-c2cn(CC(=O)OC(C)C)c(CCCN)n2)cc1`, the inhibition in experiment [2] amounted to 27%. Consider `CCCCCCCCCCc1ccc(-c2cn(C)c(CCCN)n2)cc1`, for which, in experiment [3], half-maximal inhibition (IC50) required 2.82 µM. Also, the inhibition in experiment [2] came out at 51%. The corresponding values for `CCCCCCCCCCc1ccc(-c2cn(CC)c(CCCN)n2)cc1` are 1.4 µM and 51%.

Take `CCCCCCCCCCc1nc(-c2ccc(-n3cc[n+](C)c3)cc2)no1`: the inhibition in experiment [1] came out at 41%. For the compound `CCCCCCCCCCc1ccc(-c2cn(CC(N)=O)c(CCCN)n2)cc1`, the inhibition in experiment [2] was determined as 10%. As for `CCCCCCCCc1nc(-c2ccc(-n3cc[n+](C)c3)cc2)no1`, in experiment [1], the inhibition came out at 26%.

Take `CCCCCCCCCc1nc(-c2ccc(-n3cc[n+](C)c3)cc2)no1`: in experiment [1], the inhibition is 47%.

Turning to `CCCCCCCc1nc(-c2ccc(-n3cc[n+](C)c3)cc2)no1`, the inhibition in experiment [1] was 0%. Consider `CCCCCCCCCCc1ccc(-c2cn(CCC)c(CCCN)n2)cc1`, for which the inhibition in experiment [2] was 7%.

In the case of `CCCCCCCCc1nc(-c2ccc(-n3ccnc3)cc2)no1`, the inhibition in experiment [1] amounted to 22%.
